Reference: US8658636B2, “TRPV4 antagonists” (GlaxoSmithKline, LLC, priority 2010, dated 2014)

Each molecule was assayed against T1, human TRPV4 (Homo sapiens, UniProt Q9HBA0) (assay: Ligand-gated assay (FLIPR calcium, Fluo4)). Conditions: HEK-293-MSR-II cells transduced with BacMam human TRPV4; inhibition of agonist (EC80)-induced activation; read-out: Human TRPV4 FLIPR pIC50 (converted).
T1 construct: expressed in transfected cells; host or cells: HEK-293-MSR-II cells transduced with 1% BacMam virus
Type: cell-based
Description: TRP channel activation/opening results in an influx of divalent and monovalent cations including calcium. The resulting changes in intracellular calcium are monitored using a calcium selective fluorescent dye Fluo4 (MDS Analytical Technologies). Dye loaded cells were initially exposed to test compound to verify a lack of agonist activity. Cells were subsequently activated by addition of an agonist and inhibition of the agonist-induced activation was recorded. Human embryonic kidney 293 cells stably expressing the macrophage scavenger receptor class II (HEK-293-MSR-II) and transduced with 1% BacMam (J. P. Condreay, S. M. Witherspoon, W. C. Clay and T. A. Kost, Proc Natl Acad Sci 96 (1999), pp. 127-132) virus expressing the human TRPV4 gene were plated at 15000 cells/well in a volume of 50 uL in a 384 well poly-D lysine coated plate. Cells were incubated for 24 hours at 37 degrees and 5% CO2. Media was then aspirated using a Tecan Plate-washer and replaced with 20 uL of dye loading buffer: HBSS, 500 uM Brilliant Black (MDS Analytical Technologies), 2 uM Fluo-4. Dye loaded plates were then incubated in the dark at room temperature for 1-1.5 hours. 10 uL of test compound diluted in HBSS+0.01% Chaps was added to the plate, incubated for 10 min at room temperature in the dark and then 10 uL of agonist was added at a final conc. equal to the agonist EC80. Calcium release was measured using the FLIPRtetra (MDS Analytical Technologies).

T1 sequence (Q9HBA0 whole entry): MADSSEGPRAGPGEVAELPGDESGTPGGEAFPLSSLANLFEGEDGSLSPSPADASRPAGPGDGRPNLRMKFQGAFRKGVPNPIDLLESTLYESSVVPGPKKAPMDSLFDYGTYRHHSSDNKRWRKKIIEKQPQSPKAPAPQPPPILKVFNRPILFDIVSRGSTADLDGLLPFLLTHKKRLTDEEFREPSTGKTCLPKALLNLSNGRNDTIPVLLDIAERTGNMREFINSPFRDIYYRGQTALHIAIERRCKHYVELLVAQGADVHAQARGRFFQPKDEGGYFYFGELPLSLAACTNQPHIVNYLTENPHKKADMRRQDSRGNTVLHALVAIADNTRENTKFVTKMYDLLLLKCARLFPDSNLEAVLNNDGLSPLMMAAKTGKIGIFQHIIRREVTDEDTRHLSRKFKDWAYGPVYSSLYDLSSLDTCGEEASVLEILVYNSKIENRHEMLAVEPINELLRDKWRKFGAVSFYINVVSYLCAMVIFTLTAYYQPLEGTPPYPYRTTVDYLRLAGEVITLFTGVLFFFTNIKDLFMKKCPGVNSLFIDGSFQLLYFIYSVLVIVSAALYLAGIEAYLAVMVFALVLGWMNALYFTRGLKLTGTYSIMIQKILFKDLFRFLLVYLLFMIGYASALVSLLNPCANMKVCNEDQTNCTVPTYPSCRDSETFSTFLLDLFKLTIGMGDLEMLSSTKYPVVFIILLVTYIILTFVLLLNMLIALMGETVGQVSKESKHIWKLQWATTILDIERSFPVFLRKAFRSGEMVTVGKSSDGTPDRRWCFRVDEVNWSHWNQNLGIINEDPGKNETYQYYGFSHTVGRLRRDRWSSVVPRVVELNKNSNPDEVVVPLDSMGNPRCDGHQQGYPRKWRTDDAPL

Row | SMILES | IC50 [nM]
1 | CC(C)Oc1cc2nc(-c3cccc(C(F)(F)F)c3)c(CN3CCC(N4CCOCC4)CC3)c(C(=O)N[C@H](c3ccccc3)C(F)(F)F)c2cc1S(C)(=O)=O [Example 20, 7-[(1-methylethyl)oxy]-6-(methylsulfonyl)-3-{[4-(4-morpholinyl)-1-piperidinyl]methyl}-2-[3-(trifluoromethyl)phenyl]-N-[(1R)-2,2,2-trifluoro-1-phenylethyl]-4-quinolinecarboxamide] | 6.31
2 | CCOc1cc2nc(-c3cccc(C(F)(F)F)c3)c(CN3CCC(N4CCOCC4)CC3)c(C(=O)N[C@H](c3ccccc3)C(F)(F)F)c2cc1S(=O)(=O)C(C)C [Example 23, 7-(ethyloxy)-6-[(1-methylethyl)sulfonyl]-3-{[4-(4-morpholinyl)-1-piperidinyl]methyl}-2-[3-(trifluoromethyl)phenyl]-N-[(1R)-2,2,2-trifluoro-1-phenylethyl]-4-quinolinecarboxamide] | 6.31
3 | CCOc1cc2nc(-c3cccc(C(F)(F)F)c3)c(CN3CCC(N4CCOCC4)CC3)c(C(=O)N[C@H](c3ccccc3)C(F)(F)F)c2cc1S(=O)(=O)CC [Example 26, 7-(ethyloxy)-6-(ethylsulfonyl)-3-{[4-(4-morpholinyl)-1-piperidinyl]methyl}-2-[3-(trifluoromethyl)phenyl]-N-[(1R)-2,2,2-trifluoro-1-phenylethyl]-4-quinolinecarboxamide] | 10
4 | CCS(=O)(=O)c1cc2c(C(=O)N[C@H](c3ccccc3)C(F)(F)F)c(CN3CCC(N4CCCCC4)CC3)c(-c3cccc(C(F)(F)F)c3)nc2cc1OC [Example 3, 3-(1,4′-bipiperidin-1′-ylmethyl)-6-(ethylsulfonyl)-7-(methyloxy)-2-[3-(trifluoromethyl)phenyl]-N-[(1R)-2,2,2-trifluoro-1-phenylethyl]-4-quinolinecarboxamide] | 6.31

Further lines, results first:

Row | IC50 [nM] | SMILES
5 | 6.31 | COc1cc2nc(-c3cccc(C(F)(F)F)c3)c(CN3CCC(N4CCOCC4)CC3)c(C(=O)N[C@H](c3ccccc3)C(F)(F)F)c2cc1S(=O)(=O)C(C)C [Example 22, 6-[(1-methylethyl)sulfonyl]-7-(methyloxy)-3-{[4-(4-morpholinyl)-1-piperidinyl]methyl}-2-[3-(trifluoromethyl)phenyl]-N-[(1R)-2,2,2-trifluoro-1-phenylethyl]-4-quinolinecarboxamide]
6 | 3.16 | CS(=O)(=O)c1ccc2nc(-c3cccc(C(F)(F)F)c3)c(CN3CCC(N4CCCCC4)CC3)c(C(=O)N[C@H](c3ccccc3)C(F)(F)F)c2c1 [Example 1, 3-(1,4′-bipiperidin-1′-ylmethyl)-6-(methylsulfonyl)-2-[3-(trifluoromethyl)phenyl]-N-[(1R)-2,2,2-trifluoro-1-phenylethyl]-4-quinolinecarboxamide]
7 | 10 | CC1CN(Cc2c(-c3cccc(C(F)(F)F)c3)nc3ccc(S(=O)(=O)C(C)C)cc3c2C(=O)N[C@H](c2ccccc2)C(F)(F)F)CCC1N1CCOCC1 (mixture of isomers) [Example 38, 6-[(1-methylethyl)sulfonyl]-3-{[3-methyl-4-(4-morpholinyl)-1-piperidinyl]methyl}-2-[3-(trifluoromethyl)phenyl]-N-[(1R)-2,2,2-trifluoro-1-phenylethyl]-4-quinolinecarboxamide]
8 | 3.98 | COc1cc2nc(-c3cccc(C(F)(F)F)c3)c(CN3CCC(N4CCCCC4)CC3)c(C(=O)N[C@H](c3ccccc3)C(F)(F)F)c2cc1S(=O)(=O)C(C)C [Example 21, 3-(1,4′-bipiperidin-1′-ylmethyl)-6-[(1-methylethyl)sulfonyl]-7-(methyloxy)-2-[3-(trifluoromethyl)phenyl]-N-[(1R)-2,2,2-trifluoro-1-phenylethyl]-4-quinolinecarboxamide]
